Results published in ChEMBL document CHEMBL3593229, “Identification of a potent 5-phenyl-thiazol-2-ylamine-based inhibitor of FLT3 with activity against drug resistance-conferring point mutations” (Eur J Med Chem, 2015).
The source made the active and inactive calls. The rule behind the calls is not given here.

Tests used:
[1] = test system: Receptor-type tyrosine-protein kinase FLT3 (Homo sapiens), P36888 [D835Y]; assay: Inhibition of human FLT3 D835Y mutant at 0.1 uM relative to control
[2] = molecular target: Aurora kinase C (Homo sapiens) (UniProt Q9UQB9); assay: Inhibition of human AURKC at 0.1 uM relative to control
Aurora kinase C (Homo sapiens), sequence (Q9UQB9 whole entry): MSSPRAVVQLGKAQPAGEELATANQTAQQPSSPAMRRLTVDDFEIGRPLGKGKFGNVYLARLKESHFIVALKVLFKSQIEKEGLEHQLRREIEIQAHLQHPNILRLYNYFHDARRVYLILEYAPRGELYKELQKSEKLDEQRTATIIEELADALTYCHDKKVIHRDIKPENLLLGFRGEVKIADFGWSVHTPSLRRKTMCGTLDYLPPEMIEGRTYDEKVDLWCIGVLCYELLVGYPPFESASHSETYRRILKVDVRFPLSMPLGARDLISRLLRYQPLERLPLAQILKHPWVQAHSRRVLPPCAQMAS

[3] = molecular target: Mast/stem cell growth factor receptor Kit (Homo sapiens) (UniProt P10721); assay: Inhibition of human KIT at 0.1 uM relative to control
[4] = molecular target: Vascular endothelial growth factor receptor 2 (Homo sapiens, UniProt P35968); details: 0.1 uM
Vascular endothelial growth factor receptor 2, sequence (P35968 whole entry): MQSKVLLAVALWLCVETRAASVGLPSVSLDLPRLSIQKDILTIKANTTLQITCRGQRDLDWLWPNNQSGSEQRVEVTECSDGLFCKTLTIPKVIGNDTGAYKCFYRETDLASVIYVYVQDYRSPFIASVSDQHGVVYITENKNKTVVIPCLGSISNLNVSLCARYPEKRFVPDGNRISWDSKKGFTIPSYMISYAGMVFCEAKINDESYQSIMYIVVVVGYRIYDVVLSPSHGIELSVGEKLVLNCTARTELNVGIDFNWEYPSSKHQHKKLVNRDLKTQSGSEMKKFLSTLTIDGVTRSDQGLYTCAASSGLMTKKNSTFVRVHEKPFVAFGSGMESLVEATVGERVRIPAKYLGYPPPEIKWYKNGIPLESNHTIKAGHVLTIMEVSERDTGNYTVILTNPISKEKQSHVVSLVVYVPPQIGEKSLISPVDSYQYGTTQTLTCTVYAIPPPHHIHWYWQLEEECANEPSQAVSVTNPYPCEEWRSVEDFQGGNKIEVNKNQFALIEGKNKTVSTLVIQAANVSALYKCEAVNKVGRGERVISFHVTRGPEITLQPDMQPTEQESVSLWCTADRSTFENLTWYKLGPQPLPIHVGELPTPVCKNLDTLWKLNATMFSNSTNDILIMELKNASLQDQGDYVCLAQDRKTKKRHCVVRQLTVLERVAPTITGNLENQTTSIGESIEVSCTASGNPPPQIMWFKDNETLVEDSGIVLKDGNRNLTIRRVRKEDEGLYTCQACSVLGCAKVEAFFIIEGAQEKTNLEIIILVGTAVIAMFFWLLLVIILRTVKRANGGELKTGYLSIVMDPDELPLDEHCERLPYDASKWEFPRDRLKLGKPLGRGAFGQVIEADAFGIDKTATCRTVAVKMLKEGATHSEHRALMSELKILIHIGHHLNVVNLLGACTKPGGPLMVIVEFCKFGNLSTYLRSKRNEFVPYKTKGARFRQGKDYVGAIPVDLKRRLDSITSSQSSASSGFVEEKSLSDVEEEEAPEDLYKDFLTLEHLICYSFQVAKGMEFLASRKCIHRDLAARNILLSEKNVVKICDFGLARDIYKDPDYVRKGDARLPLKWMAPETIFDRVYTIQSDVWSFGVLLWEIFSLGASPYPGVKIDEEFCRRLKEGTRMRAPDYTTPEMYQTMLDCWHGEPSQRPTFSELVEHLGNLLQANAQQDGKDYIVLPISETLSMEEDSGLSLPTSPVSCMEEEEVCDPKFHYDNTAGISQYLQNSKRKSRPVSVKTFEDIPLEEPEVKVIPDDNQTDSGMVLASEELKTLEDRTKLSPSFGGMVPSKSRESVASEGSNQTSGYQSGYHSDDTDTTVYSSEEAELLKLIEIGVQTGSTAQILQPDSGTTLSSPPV
Description: Inhibition of human KDR at 0.1 uM relative to control

[5] = molecular target: Macrophage-stimulating protein receptor (Homo sapiens) (UniProt Q04912); assay: Inhibition of human RON at 0.1 uM relative to control
[6] = test system: Receptor-type tyrosine-protein kinase FLT3 (Homo sapiens), P36888 [D835Y]
[7] = molecular target: CDK2/Cyclin A2 (Homo sapiens) (UniProt P24941+P20248); assay: Inhibition of human CDK2/cyclin A at 0.1 uM relative to control; assay type: protein-complex assay
[8] = molecular target: Tyrosine-protein kinase Fgr (Homo sapiens) (UniProt P09769); assay: Inhibition of human FGR at 0.1 uM relative to control
[9] = molecular target: Dual specificity protein kinase CLK1 (Homo sapiens) (UniProt P49759); assay: Inhibition of human CLK1 at 0.1 uM relative to control
[10] = molecular target: Aurora kinase B (Homo sapiens) (UniProt Q96GD4); assay: Inhibition of human AURKB at 0.1 uM relative to control
Aurora kinase B (Homo sapiens), sequence (Q96GD4 whole entry): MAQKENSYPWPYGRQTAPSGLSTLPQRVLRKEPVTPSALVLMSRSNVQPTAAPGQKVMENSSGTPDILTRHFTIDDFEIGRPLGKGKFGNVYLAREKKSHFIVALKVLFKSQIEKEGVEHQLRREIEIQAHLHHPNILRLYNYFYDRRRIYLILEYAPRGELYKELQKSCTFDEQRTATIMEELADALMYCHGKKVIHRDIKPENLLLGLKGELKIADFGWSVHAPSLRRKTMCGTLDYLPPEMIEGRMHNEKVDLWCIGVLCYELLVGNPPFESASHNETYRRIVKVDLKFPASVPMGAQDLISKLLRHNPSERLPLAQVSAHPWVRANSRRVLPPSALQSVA

[11] = Oral bioavailability in Sprague-Dawley rat at 10 mg/kg; assay type: ADME, organism-based; details: in vivo
MV4-11 [12] = assay: Antitumor activity against human MV4-11 cells xenografted in nude mouse assessed as tumor regression at 25 mg/kg, po qd administered on day 8 to 12 measured during 48 days post last dose; assay type: functional, organism-based
[13] = molecular target: Ribosomal protein S6 kinase beta-1 (Homo sapiens) (UniProt P23443); assay: Inhibition of human RPS6KB1 at 0.1 uM relative to control
[14] = molecular target: Receptor-type tyrosine-protein kinase FLT3 (Homo sapiens) (UniProt P36888); assay: Inhibition of human FLT3 at 0.1 uM relative to control
MV4-11 [15] = assay: Antitumor activity against human MV4-11 cells xenografted in nude mouse assessed as tumor growth inhibition at 10 mg/kg, po qd administered on day 1 to 5 measured during compound dosing; assay type: functional, organism-based
[16] = molecular target: Serine/threonine-protein kinase Sgk2 (Homo sapiens) (UniProt Q9HBY8); assay: Inhibition of human SGK2 at 0.1 uM relative to control
[17] = molecular target: Tyrosine-protein kinase Blk (Homo sapiens) (UniProt P51451); assay: Inhibition of human BLK at 0.1 uM relative to control
[18] = molecular target: Receptor-type tyrosine-protein kinase FLT3 (Homo sapiens, UniProt P36888, ITD); assay: Inhibition of FLT3 ITD mutant (unknown origin) phosphorylation expressed in HEK293T cells preincubated for 1 hr followed by FLT3 ligand addition for 5 mins by Western blot analysis; assay type: cell-based, HEK-293T
[19] = test system: Receptor-type tyrosine-protein kinase FLT3 (Homo sapiens), P36888 [UNDEFINED MUTATION]; details: MOLM-13
Description: Inhibition of FLT3 ITD heterozygous mutant in human MOLM-13 cells assessed as cell growth inhibition after 72 hrs by MTS assay

[20] = molecular target: Non-receptor tyrosine-protein kinase TYK2 (Homo sapiens) (UniProt P29597); assay: Inhibition of human TYK2 at 0.1 uM relative to control
[21] = molecular target: Tyrosine-protein kinase Fyn (Homo sapiens) (UniProt P06241); assay: Inhibition of human FYN at 0.1 uM relative to control
Mus musculus [22] = assay: Antitumor activity against human MOLM13 cells xenografted in SCID mouse assessed as increase in survival at 10 mg/kg, po qd administered on day 1 to 5 relative to vehicle-treated control; assay type: functional, MOLM-13
[23] = molecular target: Serine/threonine-protein kinase Sgk1 (Homo sapiens) (UniProt O00141); assay: Inhibition of human SGK1 at 0.1 uM relative to control
Serine/threonine-protein kinase Sgk1 (Homo sapiens), sequence (O00141 whole entry): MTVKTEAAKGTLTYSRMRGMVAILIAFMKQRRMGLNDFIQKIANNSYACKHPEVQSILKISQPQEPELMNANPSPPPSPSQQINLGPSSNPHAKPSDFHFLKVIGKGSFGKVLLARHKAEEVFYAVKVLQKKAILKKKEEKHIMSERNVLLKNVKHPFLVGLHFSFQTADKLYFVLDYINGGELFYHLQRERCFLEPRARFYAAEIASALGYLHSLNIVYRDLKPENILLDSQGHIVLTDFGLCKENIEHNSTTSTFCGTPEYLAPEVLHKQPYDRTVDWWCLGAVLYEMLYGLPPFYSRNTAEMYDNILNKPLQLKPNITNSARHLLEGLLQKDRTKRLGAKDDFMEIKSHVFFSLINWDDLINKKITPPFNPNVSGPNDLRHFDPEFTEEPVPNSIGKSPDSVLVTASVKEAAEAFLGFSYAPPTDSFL

[24] = Half life in Sprague-Dawley rat at 10 mg/kg, po; assay type: ADME, organism-based; details: in vivo
[25] = molecular target: Serine/threonine-protein kinase Chk2 (Homo sapiens) (UniProt O96017); assay: Inhibition of human CHK2 at 0.1 uM relative to control
[26] = molecular target: Serine/threonine-protein kinase PLK1 (Homo sapiens) (UniProt P53350); assay: Inhibition of human PLK1 at 0.1 uM relative to control
[27] = molecular target: Bcr/Abl fusion protein (Homo sapiens) (UniProt P00519+P11274); details: K562
Description: Inhibition of wild type BCR/ABL in FLT3 deficient human K562 cells assessed as cell growth inhibition after 72 hrs by MTS assay

[28] = molecular target: Serine/threonine-protein kinase Sgk3 (Homo sapiens) (UniProt Q96BR1); assay: Inhibition of human SGKL at 0.1 uM relative to control
[29] = molecular target: Tyrosine-protein kinase JAK2 (Homo sapiens) (UniProt O60674); assay: Inhibition of human JAK2 at 0.1 uM relative to control
[30] = molecular target: Macrophage colony-stimulating factor 1 receptor (Homo sapiens) (UniProt P07333); assay: Inhibition of human CSF1R at 0.1 uM relative to control
Macrophage colony-stimulating factor 1 receptor (Homo sapiens), sequence (P07333 whole entry): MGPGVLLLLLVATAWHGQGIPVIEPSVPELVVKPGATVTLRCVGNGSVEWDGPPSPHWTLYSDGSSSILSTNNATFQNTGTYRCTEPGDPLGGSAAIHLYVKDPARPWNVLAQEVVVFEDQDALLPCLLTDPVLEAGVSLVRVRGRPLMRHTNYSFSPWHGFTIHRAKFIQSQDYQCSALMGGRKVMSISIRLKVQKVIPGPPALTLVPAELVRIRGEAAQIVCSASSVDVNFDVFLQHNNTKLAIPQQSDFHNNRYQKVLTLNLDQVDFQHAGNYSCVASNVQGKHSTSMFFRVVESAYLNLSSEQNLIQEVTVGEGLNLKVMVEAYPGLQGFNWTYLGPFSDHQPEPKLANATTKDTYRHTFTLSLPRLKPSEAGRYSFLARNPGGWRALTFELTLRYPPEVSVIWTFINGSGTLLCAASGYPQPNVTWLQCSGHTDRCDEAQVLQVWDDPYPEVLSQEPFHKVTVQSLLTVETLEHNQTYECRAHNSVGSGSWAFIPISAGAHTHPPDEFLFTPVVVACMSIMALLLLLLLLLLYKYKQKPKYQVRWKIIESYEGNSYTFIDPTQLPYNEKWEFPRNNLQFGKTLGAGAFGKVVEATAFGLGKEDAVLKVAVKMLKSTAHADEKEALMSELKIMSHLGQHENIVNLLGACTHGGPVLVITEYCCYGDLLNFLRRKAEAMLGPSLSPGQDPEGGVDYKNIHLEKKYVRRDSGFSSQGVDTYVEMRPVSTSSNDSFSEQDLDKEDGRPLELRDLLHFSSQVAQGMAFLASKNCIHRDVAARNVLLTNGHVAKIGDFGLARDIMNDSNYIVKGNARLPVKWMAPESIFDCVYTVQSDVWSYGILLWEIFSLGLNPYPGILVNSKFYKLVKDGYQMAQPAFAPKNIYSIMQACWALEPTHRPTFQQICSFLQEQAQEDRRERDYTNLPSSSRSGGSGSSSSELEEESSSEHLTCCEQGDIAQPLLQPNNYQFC

[31] = molecular target: Glycogen synthase kinase-3 beta (Homo sapiens) (UniProt P49841); assay: Inhibition of human GSK3B at 0.1 uM relative to control
Glycogen synthase kinase-3 beta (Homo sapiens), sequence (P49841 whole entry, looked up): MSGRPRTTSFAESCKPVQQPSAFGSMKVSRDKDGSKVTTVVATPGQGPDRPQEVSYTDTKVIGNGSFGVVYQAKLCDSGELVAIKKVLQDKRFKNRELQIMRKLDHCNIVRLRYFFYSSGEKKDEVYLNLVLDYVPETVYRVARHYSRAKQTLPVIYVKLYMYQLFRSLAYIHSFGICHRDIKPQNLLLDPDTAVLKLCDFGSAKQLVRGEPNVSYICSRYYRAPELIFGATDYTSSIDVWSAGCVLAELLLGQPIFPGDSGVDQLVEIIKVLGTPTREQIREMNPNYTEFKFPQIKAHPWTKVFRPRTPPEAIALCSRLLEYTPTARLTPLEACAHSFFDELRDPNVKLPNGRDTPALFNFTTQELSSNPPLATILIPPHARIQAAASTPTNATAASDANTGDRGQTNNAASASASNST

Mus musculus [32] = assay: Antitumor activity against human MOLM13 cells xenografted in SCID mouse assessed as increase in survival at 25 mg/kg, po qd administered on day 8 to 12 relative to vehicle-treated control; assay type: functional, MOLM-13
[33] = test system: Platelet-derived growth factor receptor alpha (Homo sapiens), P16234 [V561D]; assay: Inhibition of human PDGFRA V561D mutant at 0.1 uM relative to control
[34] = test system: Proto-oncogene tyrosine-protein kinase receptor Ret (Homo sapiens), P07949 [V804L]; assay: Inhibition of human RET V804L mutant at 0.1 uM relative to control
Proto-oncogene tyrosine-protein kinase receptor Ret (Homo sapiens), P07949 [V804L], sequence (P07949 whole entry V804L): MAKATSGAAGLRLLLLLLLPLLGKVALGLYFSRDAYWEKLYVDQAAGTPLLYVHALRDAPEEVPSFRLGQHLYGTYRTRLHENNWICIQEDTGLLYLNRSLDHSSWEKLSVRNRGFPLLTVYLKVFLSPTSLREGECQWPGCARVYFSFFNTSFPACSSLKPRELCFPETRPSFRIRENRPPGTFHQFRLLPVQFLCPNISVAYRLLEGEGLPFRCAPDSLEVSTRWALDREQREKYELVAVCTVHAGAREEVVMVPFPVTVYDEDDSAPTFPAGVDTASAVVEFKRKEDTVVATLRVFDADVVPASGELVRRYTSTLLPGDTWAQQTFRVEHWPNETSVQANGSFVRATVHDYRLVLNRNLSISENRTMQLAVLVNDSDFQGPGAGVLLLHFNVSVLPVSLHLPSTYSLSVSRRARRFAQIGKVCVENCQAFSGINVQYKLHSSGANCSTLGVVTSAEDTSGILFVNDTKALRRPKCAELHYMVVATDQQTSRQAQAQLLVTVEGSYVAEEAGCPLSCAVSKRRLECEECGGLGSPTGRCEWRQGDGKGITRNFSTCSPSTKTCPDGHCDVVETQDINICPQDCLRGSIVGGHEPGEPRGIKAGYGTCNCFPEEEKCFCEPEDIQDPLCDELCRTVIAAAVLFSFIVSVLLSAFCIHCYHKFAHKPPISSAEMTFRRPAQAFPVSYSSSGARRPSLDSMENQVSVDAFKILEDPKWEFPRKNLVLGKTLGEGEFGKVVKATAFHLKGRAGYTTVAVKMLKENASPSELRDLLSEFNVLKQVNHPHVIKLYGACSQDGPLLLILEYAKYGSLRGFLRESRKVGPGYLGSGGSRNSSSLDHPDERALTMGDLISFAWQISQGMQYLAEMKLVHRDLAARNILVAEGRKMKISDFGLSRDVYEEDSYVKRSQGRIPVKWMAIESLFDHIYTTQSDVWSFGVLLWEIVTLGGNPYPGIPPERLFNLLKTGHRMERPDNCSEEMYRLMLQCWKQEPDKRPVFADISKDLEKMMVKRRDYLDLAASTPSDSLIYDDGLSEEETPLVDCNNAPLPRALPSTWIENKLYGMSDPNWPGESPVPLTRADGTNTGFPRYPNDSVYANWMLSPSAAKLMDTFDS

[35] = molecular target: Serine/threonine-protein kinase Chk1 (Homo sapiens) (UniProt O14757); assay: Inhibition of human CHK1 at 0.1 uM relative to control
[36] = Oral bioavailability in ICR mouse at 10 mg/kg; assay type: ADME, organism-based; details: in vivo
[37] = molecular target: Tyrosine-protein kinase JAK1 (Homo sapiens) (UniProt P23458); assay: Inhibition of human JAK1 at 0.1 uM relative to control
[38] = Cmax in ICR mouse at 10 mg/kg, po; assay type: ADME, organism-based; set-up: dose 10 mg/kg, route oral; details: in vivo
[39] = molecular target: AMP-activated protein kinase, AMPK (Homo sapiens) (UniProt P54646+O43741+P54619+Q9UGJ0+Q9Y478+Q13131+Q9UGI9); assay: Inhibition of human AMPK A1/B1/G1 at 0.1 uM relative to control; assay type: protein-complex assay
[40] = molecular target: Serine/threonine-protein kinase Nek2 (Homo sapiens) (UniProt P51955); assay: Inhibition of human NEK2 at 0.1 uM relative to control
[41] = AUC (0 to infinity) in ICR mouse at 10 mg/kg, po; assay type: ADME, organism-based; set-up: dose 10 mg/kg, time infinity, route oral; details: in vivo

Molecule `CCc1cc(NC(=O)Nc2ccc(-c3cnc(Nc4cc(N5CCN(CC)CC5)nc(C)n4)s3)cc2)no1` has an inhibition [1] of 87%, an inhibition [2] of 45% and an inhibition [3] of 64%. It also gave an inhibition [4] of 85%, an inhibition [5] of -3% and a GI50 [6] of 6 nM. For the same molecule, the inhibition [7] was 4%, the inhibition [8] was 89% and the inhibition [9] was 5%. The inhibition [10] was 85%, the bioavailability [11] was 20% and the Activity (MV4-11 [12]) was “Active”. For the same molecule, the inhibition [13] was 22%, the inhibition [14] was 98% and the TGI (MV4-11 [15]) was “Active”. It also gave an inhibition [16] of 6%, an inhibition [17] of 78% and an IC50 [18] of 10 nM. The GI50 [19] was 2 nM, the inhibition [20] was 21% and the inhibition [21] was 46%. The Activity (Mus musculus [22]) was 45%, the inhibition [23] was 2% and the half-life [24] was 4.3 h. The inhibition [25] was -3%, the inhibition [26] was 9% and the GI50 [27] was 190 nM. For the same molecule, the inhibition [28] was -8%, the inhibition [29] was -3% and the inhibition [30] was 94%. The inhibition [31] was 44%, the Activity (Mus musculus [32]) was 90% and the inhibition [33] was 63%. The inhibition [34] was 65%, the inhibition [35] was 17% and the bioavailability [36] was 35%. It also gave an inhibition [37] of -8%, a Cmax [38] of 168 ng/mL and an inhibition [39] of 16%. For the same molecule, the inhibition [40] was -4% and the AUC(0-inf) [41] was 942 ng·h/mL.
